Measurements published in US4914204A, “4-Pentafluorophenoxypiperidines” (priority 1988, dated 1990).
Where a name gives a salt, the structure may show the parent alone. Read-outs that look alike come from different tables or passages of the source.

Legend:
mice [1] = assay: tetrabenazine (TBZ) induced ptosis assay (antidepressant activity); format: in vivo, mice (male, Charles River, CD-1)
Description: In the tetrabenazine induced ptosis assay, male mice (Charles River, CD-1), weighing 20 to 39 g, are used in test groups of five animals. Test compounds are dissolved, or suspended with 1 drop of Tween-80, in distilled water and administered to the animals in volumes of 10 cc per kg of body weight. Tetrabenazine methanesulfonate (76.78% as the free base) is dissolved in distilled water and the concentration of the solution is adjusted so that the dose, administered intraperitoneally (i.p.) to the animals, is 40 mg of tetrabenazine base per kg of animal body weight.
The test compound is administered intraperitoneally (i.p.) or perorally (p.o.) to the subject animals, and the tetrabenazine solution is administered 30 minutes or 60 minutes, respectively, thereafter. Tetrabenazine solution and the solvent used to dissolve or suspend the test compounds are administered by the same route and at the same intervals as the test compounds to a control group.
The subject animals are placed in individual plastic containers (101/2"×8"×6") thirty (i.p.) and sixty minutes (p.o.) after administration of the tetrabenazine solution, and one minute thereafter, the animals are scored for ptosis on the following scale:
The total score for each group of 5 animals will therefore vary from 0 to 20; these scores are used as the indications of the activity of the test compound.
The vehicle-control group score is used as a determination of the validity of each test.
For calculation of the ED50 value of a test compound; i.e., the calculated dose at which the test compound effects a 50% inhibition of tetrabenazine-induced ptosis, four or five doses are administered, and only vehicle-control scores of 17 to 20 are acceptable. A linear-regression analysis is used to estimate ED50 values and 95% confidence limits.

mice [2] = assay: phenyl-p-benzoquinone writhing assay (analgesic activity); format: in vivo, mice (male, Charles River, CD-1); conditions: for % Inhibition of writhing: screening dose of 20 mg/kg, s.c.; for ED50: Mus musculus, sc, footnote 1 of Table 1, read-out: Analgesic Activity, ED50 (calculated dose effecting 50% inhibition of writhing)
Description: The procedure employed to determine analgetic utility is a modification of the phenyl-p-benzoquinone writhing assay in mice, a standard assay for analgesia [Proc. Soc. […] Pursuant to the modified procedure phenyl-p-benzoquinone (Eastman, 12.5 mg) is dissolved in 5 ml of 95% ethanol and the solution is diluted to a total volume of 100 ml with distilled water. The solution is administered to the subject mice intraperitoneally at a dose of 10 ml per kg of body weight. A characteristic "writhe" an inward rotation of one or more feet with twisting and turning of the trunk, drawing in of the abdominal wall, lordosis and arching of the back, is produced.
A total of 28 male mice (Charles River, CD-1), weighing 18 to 30 grams, are employed for a time response. The subject animals receive food and water ad libitum. Test compounds are dissolved in distilled water, or suspended in distilled water containing one drop of a suitable surfactant, such as Tween-80.
Four groups of five animals (20 animals) are given the test compound subcutaneously (s.c.) or orally (p.o.) at 15, 30, 45 and 60 minutes prior to administration of the phenyl-p-quinone. A control group (2 animals per group) receive an equal volume of the vehicle. After the administration of the phenyl-p-quinone, the mice are placed separately in one liter beakers, and after five minutes, are observed for ten minutes. The number of writhes for each animal is recorded. The following formula is used to compute the percent inhibition: [formula]
The time period with the greatest percent of inhibition is considered the peak time.

rats = assay: L-5-hydroxytryptophan (5-HTP) potentiation assay (antidepressant activity); format: in vivo, male Wistar rats
Description: Antidepressant activity is determined by the L-5-hydroxytryptophan potentiation assay in rats described in Brit.
In the L-5-hydroxytryptophan potentiation assay groups of six male Wistar rats (150-200 grams each) are used. Pargyline hydrochloride is prepared and administered four hours before testing by subcutaneous injection at 75 mg/kg in 1% saline and a dosage volume of 1.0 ml/kg. Thirty minutes before testing, drugs are prepared and dosed using distilled water and, if insoluble, a suitable surfactant is added. Control groups receive vehicle. Drugs are routinely administered intraperitoneally at a dosage volume of 10 ml/kg. L-5-hydroxytryptophan (5-HTP) is prepared at 1.0 mg/kg in distilled water and is administered intraperioneally in volumes proportional to 10 ml/kg.
Potentiation is expressed as normalized percent potentiation relative to vehicle control. ED50 values (the calculated dose at which the test compound effects a 50% inhibition of continuous forelimb clonus) and 95% confidence limits are determined by linear analysis.

mice [3] = assay: metrazol lethality assay (MTZ), anticonvulsant activity; format: in vivo, mice (male, Charles River, CD-1)
[4] = test system: spontaneous hypertensive rat; assay: antihypertensive activity, indirect tail cuff method; format: in vivo; conditions: 50 mg/kg p.o.; measured on third day
Description: The compounds of this invention are also useful as antihypertensive agents due to their ability to depress blood pressure in mammals. Antihypertensive activity is measured in the spontaneous hypertensive rat by the indirect tail cuff method described in "Methods in Pharmacology", A. Schwartz, Ed., Vol. I, Appleton-Century Crofts, New York, N.Y., 1971, p. 135. In this procedure a group of five animals is treated orally for three days with the test compound in relation to a control group of the same number. The drop in blood pressure is measured on the third day following administration. The antihypertensive activities of representative compounds, expressed as a decrease in mean arterial blood pressure (in mm Hg), are given in Table 3 along with the activity of a standard compound.

[5] = Mus musculus, ip; read-out: TBZ ED50
[6] = Rattus norvegicus, ip; read-out: 5-HTP ED50
[7] = Mus musculus, ip, read-out: TBZ ED50
[8] = Rattus norvegicus, ip, read-out: 5-HTP ED50

Fc1c(F)c(F)c(OC2(c3ccc(Cl)cc3)CCNCC2)c(F)c1F.O=C(O)/C=C/C(=O)O [4-(4-Chlorophenyl)-4-(2,3,4,5,6-pentafluorophenoxy)piperidine fumarate]
ED50 (mice [1]; [5]): 20 mg/kg | % Inhibition of writhing (mice [2]): 66% | ED50 (rats; [6]): 37 mg/kg

CN1CCC(Oc2c(F)c(F)c(F)c(F)c2F)CC1 [1-methyl-4-(2,3,4,5,6-pentafluorophenoxy)piperidine]
ED50 (mice [1]; [5]): 4.7 mg/kg | ED50 (rats; [6]): 4.7 mg/kg

CN1CCC(Oc2c(F)c(F)c(F)c(F)c2F)(c2ccccc2F)CC1.O=C(O)C(=O)O [4-(2-Fluorophenyl)-1-methyl-4-(2,3,4,5,6-pentafluorophenoxy) piperidine oxalate]
ED50 (mice [1]; [7]): 3.8 mg/kg

CN1CCC(Oc2c(F)c(F)c(F)c(F)c2F)(c2ccccc2)CC1.Cl [1-methyl-4-(2,3,4,5,6-pentafluorophenoxy)-4-phenylpiperidine hydrochloride]
ED50 (mice [1]; [7]): 1.3 mg/kg | ED50 (rats; [8]): 8.1 mg/kg

CN1CCC(Oc2c(F)c(F)c(F)c(F)c2F)(c2ccc(F)cc2)CC1.Cl [4-(4-Fluorophenyl)-1-methyl-4-(2,3,4,5,6-pentafluorophenoxy)p iperidine hydrochloride]
ED50 (mice [1]; [7]): 5.4 mg/kg | Percent inhibition of Metrazol lethality (mice [3]; 30 mg/kg i.p., footnote 2 of Table 2): 80% | % Inhibition of writhing (mice [2]): 49% | ED50 (rats; [8]): 7 mg/kg

Cl.Fc1ccc(C2(Oc3c(F)c(F)c(F)c(F)c3F)CCNCC2)cc1 [4-(4-Fluorophenyl)-4-(2,3,4,5,6-pentafluorophenoxy)piperidine hydrochloride]
ED50 (mice [1]; [5]): 4.8 mg/kg | % Inhibition of writhing (mice [2]): 58% | ED50 (rats; [6]): < 10 mg/kg

CN(C)CCC=C1c2ccccc2CCc2ccccc21 [amitriptyline, reference compound]
ED50 (mice [1]; [5]): 1.5 mg/kg | ED50 (rats; [6]): 7.1 mg/kg

COc1ccc(C2(Oc3c(F)c(F)c(F)c(F)c3F)CCN(C)CC2)cc1.Cl [4-(4-Methoxyphenyl)-1-methyl-4-(2,3,4,5,6-pentafluorophenoxy) piperidine hydrochloride]
% Inhibition of writhing (mice [2]): 53%

Cc1ccc(C2(Oc3c(F)c(F)c(F)c(F)c3F)CCN(C)CC2)cc1 [(4-(4-Methylphenyl)-1-methyl-4-(2,3,4,5,6-pentafluorophenoxy)piperidine hydrochloride]
ED50 (mice [1]; [7]): 7 mg/kg

CN1CCC(Oc2c(F)c(F)c(F)c(F)c2F)(c2ccc(Cl)cc2)CC1.O=C(O)/C=C/C(=O)O [4-(4-Chlorophenyl)-1-methyl-4-(2,3,4,5,6-pentafluorophenoxy)p iperidine fumarate]
ED50 (mice [1]; [7]): 38.9 mg/kg | ED50 (rats; [8]): 11.9 mg/kg

Fc1c(F)c(F)c(OC2(c3ccccc3)CCNCC2)c(F)c1F.O=C(O)/C=C\C(=O)O [4-(2,3,4,5,6-Pentafluorophenoxy)-4-phenylpiperidine maleate]
ED50 (mice [1]; [5]): 1 mg/kg | ED50 (rats; [6]): 14.5 mg/kg

N#CN1CCC(Oc2c(F)c(F)c(F)c(F)c2F)(c2ccccc2)CC1 [1-Cyano-4-(2,3,4,5,6-pentafluorophenoxy)-4-phenyl piperidine]
ED50 (mice [3]; Mus musculus, po): 55.2 mg/kg | % Inhibition of writhing (mice [2]): 52%

Cl.Fc1ccc2c(CCCN3CCC(Oc4c(F)c(F)c(F)c(F)c4F)CC3)noc2c1 [1-[(6-Fluoro-1,2-benzisoxazol-3-yl)propyl]-4-(2,3,4,5,6-pentafluorophenoxy)piperidine hydrochloride]
SHR mm dec. in blood pressure (decrease in mean arterial blood pressure) [4]: 62 mm Hg

Fc1c(F)c(F)c(OC2(c3ccccc3)CCN(Cc3ccccc3)CC2)c(F)c1F [1-Benzyl-4-(2,3,4,5,6-pentafluorophenoxy)-4-phenyl piperidine]
SHR mm dec. in blood pressure (decrease in mean arterial blood pressure) [4]: 40 mm Hg

Cl.Fc1c(F)c(F)c(OC2CCNCC2)c(F)c1F [4-(2,3,4,5,6-Pentafluorophenoxy)piperidine hydrochloride]
ED50 (mice [2]): 20 mg/kg

CP(C)(=O)CN1CCC(Oc2c(F)c(F)c(F)c(F)c2F)CC1 [1-[(Dimethylphosphinyl)methyl]-4-(2,3,4,5,6-pentafluorophenoxy)piperdine]
ED50 (rats; [6]): 9.1 mg/kg

Cc1ccc(C2(Oc3c(F)c(F)c(F)c(F)c3F)CCNCC2)cc1.O=C(O)/C=C\C(=O)O [4-(4-Methylphenyl)-4-(2,3,4,5,6-pentafluorophenoxy)piperidine maleate]
ED50 (mice [1]; [5]): 8.3 mg/kg | % Inhibition of writhing (mice [2]): 56% | ED50 (rats; [6]): 14.5 mg/kg

Fc1ccccc1C1(Oc2c(F)c(F)c(F)c(F)c2F)CCNCC1.O=C(O)/C=C\C(=O)O [4-(2-Fluorophenyl)-4-(2,3,4,5,6-pentafluorophenoxy)piperidine maleate]
ED50 (mice [1]; [5]): 6.4 mg/kg | ED50 (rats; [6]): < 20 mg/kg

N=C(N)NCCN1CCCCCCC1 [guanethidine, reference compound]
SHR mm dec. in blood pressure (decrease in mean arterial blood pressure) [4]: 20 mm Hg

COc1ccccc1N1CCN(CCCCN2CCC(Oc3c(F)c(F)c(F)c(F)c3F)CC2)CC1 [1-{4-[1-[4-(2-Methoxyphenyl)piperazin-1-yl]butyl]}-4-(2,3,4,5,6-pentafluorophenoxy)piperidine dioxalate]
ED50 (mice [2]): 19 mg/kg
